Test results from patent US20060134228A1, “Medicine for prevention of and treatment for amyloidosis” (Nipro Corporation, priority 2002, published 2006).

Molecular target: T1, transthyretin purified from human serum (Homo sapiens, UniProt P02766)
T1 construct: Using transthyretin purified from human serum as a transthyretin-containing solution; from tissue; host or cells: human serum
Assay: Quantitative ratio of transthyretin tetramer and transthyretin monomer (gel separation chromatography, Coomassie stain)
Format: biochemical
Details: metal chloride 80 μg/mL, transthyretin 0.2 mg/mL, incubated at 37° C.
Method: Using transthyretin purified from human serum as a transthyretin-containing solution, the purity thereof was confirmed by electrophoresis. The transthyretin-containing solution (10 mg/mL) was dissolved in a buffer solution to obtain a concentration of 0.2 mg/mL, and chromium chloride (80 μg/mL) was added. The pH of the buffer solution was adjusted to a pH necessary for each experiment using sodium hydroxide or hydrochloric acid. The above-described solution was incubated at 37° C. to produce amyloid fiber.
The transthyretin tetramer and the transthyretin monomer were separated by gel separation chromatography, immersed in the Coomassie Brilliant Blue stain, and examined for color developing intensity. Likewise, measurements were conducted for a comparative example wherein the metal compound added to the solution for incubation was changed from chromium chloride to aluminum chloride, and for a control not formulated with chromium chloride. Also, another test was conducted in the same manner, except that the metal compound added to the solution for incubation was replaced with 80 μg/mL chromium chloride and 80 μg/mL aluminum chloride (chromium chloride and aluminum chloride coexisted). Measurement results of fluorescence intensity and the quantitative ratio of the transthyretin tetramer and the transthyretin monomer are shown in FIG. 1.

Row | Compound | decomposition from the transthyretin tetramer to the transthyretin monomer | decomposition from the transthyretin tetramer to the transthyretin monomer (listed as aluminum)
1 | [Cl][Cr]([Cl])[Cl] [trivalent chromium ion, chromium chloride] | inhibit the reaction of decomposing the transthyretin tetramer to produce the monomer | 
2 | [Cl][Al]([Cl])[Cl] [aluminum ion, aluminum chloride] | promote the reaction of decomposing the transthyretin tetramer to the monomer | promote the decomposition
